Legend:
Type in all cases: in vivo, human
COVID-19 patients = test: CoDEX study dataset, dexamethasone vs placebo by Model C.4 subphenotype
From the text: The dataset from the CoDEX study was used for analysis. The CoDEX study involved treating COVID-19 patients with dexamethasone. K-means clustering was applied using Model C.4 described above in Table 70 and patients were separated into two clusters assigned to Subphenotype A and Subphenotype B. Tables 75A and 75B show the corresponding results.

ARDS patients [1] = test: ARMA-KARMA-LARMA study dataset, lisofylline and ketoconazole vs placebo by subphenotype; conditions: for Mortality: ARMA-KARMA-LARMA; for Dead 90: 1 0, Percent: mortality
From the text: The dataset from the ARMA-KARMA-LARMA study was used for analysis. Interventions in the study included lisofylline and ketoconazole.

ARDS patients [2] = test: LASRS study dataset, methylprednisolone vs placebo by Model C.4 subphenotype; conditions: for Dead 90: 1 0, Frequency: dead at 90 days; for Mortality: cohort receiving methylprednisolone
From the text: The dataset from the LASRS study was used for analysis. The LASRS study involved administration of corticosteroids, specifically methylprednisolone. K-means clustering was applied using Model C.4 described above in Table 70 and patients were separated into two subphenotypes based on the K-means cluster. Overall mortality was 40% in Subphenotype B and 28.57% in Subphenotype A (p = 0.3287). Within Subphenotype B, mortality rates were 40% regardless of whether the patient received methylprednisolone or a placebo; however, in Subphenotype A, mortality was 50% in the cohort receiving methylprednisolone, compared with 9.09% in the placebo cohort (p = 0.0382).

ARDS patients [3] = test: eICU (v1) dataset, statin intervention by Model C.4 subphenotype; parameters: Alive: unit not given here; conditions: for Alive / Dead / Mortality: no consideration to number doses and minimum dose size
From the text: The dataset from the eICU (v1) dataset was used for analysis. The intervention of interest was statins.
The individual statins were then examined with no consideration to number of doses and minimum dose size. Using this methodology, there were several differential responses identified (bolded and underlined cells as shown below in Table 81).

ARDS patients [4] = test: eICU data filtered for patients without prior indication for statin use, statin intervention by subphenotype
From the text: This included patients with history of angina, congestive heart failure, coronary artery bypass grafting, multiple coronary artery bypass, hypertension requiring treatment, previous acute myocardial infarction, peripheral vascular disease, previous coronary intervention procedure, stroke, and/or transient ischemic attack.

ARDS patients [5] = test: eICU (v1) dataset, statin intervention by Model C.4 subphenotype; parameters: Alive: unit not given here
[6] = Patients administered lisofylline (title), Subphenotype A
[7] = Patients administered lisofylline (title), Subphenotype B
[8] = Subphenotype A patients, not dead at 90 days
[9] = Subphenotype B patients, not dead at 90 days
[10] = active arm vs placebo, Subphenotype A patients
[11] = active arm vs placebo, Subphenotype B patients
[12] = admitted with drug or initiated during ICU stay, All Patients
[13] = admitted with drug or initiated during ICU stay, Subphenotype A
[14] = admitted with drug or initiated during ICU stay, Subphenotype B
[15] = initiated during ICU stay, All Patients
[16] = initiated during ICU stay, Subphenotype A
[17] = initiated during ICU stay, Subphenotype B
[18] = on drug at time of ICU admit, All Patients
[19] = on drug at time of ICU admit, Subphenotype A
[20] = on drug at time of ICU admit, Subphenotype B

## C[C@@H]1C[C@H]2[C@@H]3CCC4=CC(=O)C=C[C@]4(C)[C@@]3(F)[C@@H](O)C[C@]2(C)[C@@]1(O)C(=O)CO [dexamethasone]
COVID-19 patients; Subphenotype A
  28-day Mortality: 54.72%
  Increase in number of vent free days versus placebo: 45%
  Vent Free Days: 8.81 days
COVID-19 patients; Subphenotype B
  28-day Mortality: 62.50%
  Increase in number of ventilator free days versus placebo: 101%
  Vent Free Days: 5.09 days

## C[C@@H](O)CCCCn1c(=O)c2c(ncn2C)n(C)c1=O [lisofylline]
ARDS patients [1]; Subphenotype A, patients who received lisofylline
  Mortality: 31.4%
ARDS patients [1]; Subphenotype B, patients who got lisofylline
  Mortality: 40%
ARDS patients [1]; [6]
  Dead 90: 0 0, Frequency: 36
  Dead 90: 0 0, Percent: 72%
  Dead 90: 1 0, Frequency: 14
  Dead 90: 1 0, Percent: 28%
ARDS patients [1]; [7]
  Dead 90: 0 0, Frequency: 51
  Dead 90: 0 0, Percent: 72.86%
  Dead 90: 1 0, Frequency: 19
  Dead 90: 1 0, Percent: 27.14%

## C[C@H]1C[C@@H]2[C@H]([C@@H](O)C[C@@]3(C)[C@H]2CC[C@]3(O)C(=O)CO)[C@@]2(C)C=CC(=O)C=C12 [methylprednisolone]
ARDS patients [2]; Subphenotype A patients
  Dead 90: 1 0, Frequency: 5
ARDS patients [2]; Subphenotype A patients, mortality
  Dead 90: 1 0, Row Percent: 50%
ARDS patients [2]; [8]
  Dead 90: 0 0, Frequency: 5
  Dead 90: 0 0, Row Percent: 50%
ARDS patients [2]; Subphenotype A
  Mortality: 50%
ARDS patients [2]; Subphenotype B patients
  Dead 90: 1 0, Frequency: 18
ARDS patients [2]; Subphenotype B patients, mortality
  Dead 90: 1 0, Percent: 40%
ARDS patients [2]; [9]
  Dead 90: 0 0, Frequency: 27
  Dead 90: 0 0, Percent: 60%
ARDS patients [2]; Subphenotype B
  Mortality: 40%
ARDS patients [1]; [10]
  Dead 90: 0 0, Frequency: 24
  Dead 90: 0 0, Percent: 68.57%
  Dead 90: 1 0, Frequency: 11
  Dead 90: 1 0, Percent: 31.43%
ARDS patients [1]; [11]
  Dead 90: 0 0, Frequency: 15
  Dead 90: 0 0, Percent: 60%
  Dead 90: 1 0, Frequency: 10
  Dead 90: 1 0, Percent: 40%

## CCC(C)(C)C(=O)O[C@H]1C[C@@H](C)C=C2C=C[C@H](C)[C@H](CC[C@@H]3C[C@@H](O)CC(=O)O3)[C@H]21 [simvastatin]
ARDS patients [3]; [12]
  Mortality Rate: 12.87
ARDS patients [3]; All Patients
  Alive: 167
  Dead: 26
  Mortality: 13%
ARDS patients [3]; Subphenotype A
  Alive: 122
  Dead: 10
  Mortality: 8%
ARDS patients [3]; Subphenotype B
  Alive: 45
  Dead: 16
  Mortality: 26%
ARDS patients [4]; [12]
  Alive: 23
  Dead: 5
  Mortality Rate: 17.86
ARDS patients [4]; [13]
  Alive: 15
  Dead: 1
  Mortality Rate: 6.25
ARDS patients [4]; [14]
  Alive: 8
  Dead: 4
  Mortality Rate: 33.33
ARDS patients [4]; [15]
  Alive: 6
  Dead: 4
  Mortality Rate: 40
ARDS patients [4]; [16]
  Alive: 5
  Dead: 1
  Mortality Rate: 16.67
ARDS patients [4]; [17]
  Alive: 1
  Dead: 3
  Mortality Rate: 75
ARDS patients [4]; [18]
  Alive: 17
  Dead: 1
  Mortality Rate: 5.56
ARDS patients [4]; [19]
  Alive: 10
  Dead: 0
  Mortality Rate: 0
ARDS patients [4]; [20]
  Alive: 7
  Dead: 1
  Mortality Rate: 12.5
ARDS patients [5]; [12]
  Alive: 176
  Dead: 26
ARDS patients [5]; [13]
  Alive: 126
  Dead: 10
  Mortality Rate: 7.35
ARDS patients [5]; [14]
  Alive: 50
  Dead: 16
  Mortality Rate: 24.24
ARDS patients [5]; [15]
  Alive: 89
  Dead: 15
  Mortality Rate: 14.42
ARDS patients [5]; [16]
  Alive: 63
  Dead: 6
  Mortality Rate: 8.70
ARDS patients [5]; [17]
  Alive: 26
  Dead: 9
  Mortality Rate: 25.71
ARDS patients [5]; [18]
  Alive: 87
  Dead: 11
  Mortality Rate: 11.22
ARDS patients [5]; [19]
  Alive: 63
  Dead: 4
  Mortality Rate: 5.97
ARDS patients [5]; [20]
  Alive: 24
  Dead: 7
  Mortality Rate: 22.58

From patent US20230290452A1, “Electronic Health Record (EHR)-Based Classifier for Acute Respiratory Distress Syndrome (ARDS) Subtyping” (Endpoint Health Inc., priority 2020, published 2023)
